Test results published in publication PMC4083421 (Nature Communications, 2014).
Like-named read-outs stand apart in the source and are kept apart here.

Key:
Type in all cases: binding
[1] = biological target: T1, 1LysM module of AtlA (Enterococcus faecalis, UniProt P37710); test: biochemical
[2] = biological target: T2, L1–L6 (Enterococcus faecalis, UniProt P37710); test: Steady-state SPR; details: SD
T2 sequence (P37710 338-737): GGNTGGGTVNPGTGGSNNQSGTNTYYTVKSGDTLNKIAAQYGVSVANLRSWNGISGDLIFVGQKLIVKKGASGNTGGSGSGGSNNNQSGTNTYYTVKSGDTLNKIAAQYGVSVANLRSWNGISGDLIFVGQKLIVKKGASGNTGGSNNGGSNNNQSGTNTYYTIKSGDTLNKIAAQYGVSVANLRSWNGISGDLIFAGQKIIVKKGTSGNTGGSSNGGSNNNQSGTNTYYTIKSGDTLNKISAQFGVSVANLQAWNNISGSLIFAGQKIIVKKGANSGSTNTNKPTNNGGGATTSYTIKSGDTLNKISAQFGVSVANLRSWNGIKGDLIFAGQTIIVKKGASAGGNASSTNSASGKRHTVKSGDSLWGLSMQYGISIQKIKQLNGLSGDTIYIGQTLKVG

[3] = biological target: T3, L1L2L3 (Enterococcus faecalis, UniProt P37710); test: Steady-state SPR; details: SD
T3 sequence (P37710 338-542 A476S/S477A): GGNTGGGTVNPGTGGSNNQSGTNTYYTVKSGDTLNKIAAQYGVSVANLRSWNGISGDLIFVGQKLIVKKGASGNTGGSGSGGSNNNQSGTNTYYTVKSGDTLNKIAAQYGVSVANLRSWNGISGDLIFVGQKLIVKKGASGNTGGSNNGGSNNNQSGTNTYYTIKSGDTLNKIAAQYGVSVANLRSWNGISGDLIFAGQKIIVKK

[4] = biological target: L1L2 (Enterococcus faecalis, UniProt P37710); test: Steady-state SPR
[5] = biological target: L1 (Enterococcus faecalis, UniProt P37710); test: Steady-state SPR
[6] = biological target: T4, 1 (1LysM, WT) (Enterococcus faecalis, UniProt P37710); test: Steady-state SPR
[7] = biological target: T1, 1LysM module of AtlA; test: biochemical; details: Apparent KD to 1LysM (SPR), single LysM module; ± standard deviation
[8] = biological target: T4, 1 (1LysM, WT); test: SPR

In the case of `CC(=O)N[C@H]1[C@H](O[C@H]2[C@H](O[C@H](C)C(=O)O)[C@@H](NC(C)=O)C(O)O[C@@H]2CO)O[C@H](CO)[C@@H](O[C@@H]2O[C@H](CO)[C@@H](O[C@@H]3O[C@H](CO)[C@@H](O)[C@H](O)[C@H]3NC(C)=O)[C@H](O[C@H](C)C(=O)O)[C@H]2NC(C)=O)[C@@H]1O` (stereo partly drawn) [(GlcNAc-MurNAc)2, (GlcNAc-β−1,4-MurNAc)2], the Kd [1] is reported as 650 µM.
With `CC(=O)N[C@H]1[C@H](O[C@H]2[C@H](O)[C@@H](NC(C)=O)C(O)O[C@@H]2CO)O[C@H](CO)[C@@H](O)[C@@H]1O` (stereo partly drawn) [GlcNAc2, chitobiose (di-N-acetylchitobiose, beta-1,4-linked GlcNAc dimer)] the Kd [2] was 4420 µM, the Kd [3] was 7100 µM and the Kd [4] was greater than 5000 µM. The Kd [5] was greater than 5000 µM and the Kd [6] was greater than 5000 µM.
Work on `CC(=O)N[C@H]1[C@H](O[C@H]2[C@H](O)[C@@H](NC(C)=O)C(O)O[C@@H]2CO)O[C@H](CO)[C@@H](O[C@@H]2O[C@H](CO)[C@@H](O)[C@H](O)[C@H]2NC(C)=O)[C@@H]1O` (stereo partly drawn) [GlcNAc3, chitotriose (tri-N-acetylchitotriose, beta-1,4-linked GlcNAc trimer)] yielded a Kd [2] of 702 ± 87.7 µM, a Kd [3] of 628 ± 32.8 µM and a Kd ([4]; SD) of 678 ± 57.3 µM. For the same molecule, the Kd ([5]; SD) was 453 ± 58.6 µM.
`CC(=O)N[C@H]1[C@H](O[C@H]2[C@H](O)[C@@H](NC(C)=O)C(O)O[C@@H]2CO)O[C@H](CO)[C@@H](O[C@@H]2O[C@H](CO)[C@@H](O)[C@H](O)[C@H]2NC(C)=O)[C@@H]1O` (stereo partly drawn) [GlcNAc3] showed a Kd [7] of 408 ± 80.8 µM.
In the case of `CC(=O)N[C@H]1[C@H](O[C@H]2[C@H](O)[C@@H](NC(C)=O)C(O)O[C@@H]2CO)O[C@H](CO)[C@@H](O[C@@H]2O[C@H](CO)[C@@H](O[C@@H]3O[C@H](CO)[C@@H](O)[C@H](O)[C@H]3NC(C)=O)[C@H](O)[C@H]2NC(C)=O)[C@@H]1O` (stereo partly drawn) [GlcNAc4, chitotetraose (tetra-N-acetylchitotetraose, beta-1,4-linked GlcNAc tetramer)], the Kd [2] is reported as 18.6 ± 4.5 µM, the Kd [3] is reported as 22.3 ± 1.8 µM and the Kd ([4]; SD) is reported as 38.1 ± 2.8 µM. The Kd ([5]; SD) was 50.4 ± 4.1 µM.
`CC(=O)N[C@H]1[C@H](O[C@H]2[C@H](O)[C@@H](NC(C)=O)C(O)O[C@@H]2CO)O[C@H](CO)[C@@H](O[C@@H]2O[C@H](CO)[C@@H](O[C@@H]3O[C@H](CO)[C@@H](O)[C@H](O)[C@H]3NC(C)=O)[C@H](O)[C@H]2NC(C)=O)[C@@H]1O` (stereo partly drawn) [GlcNAc4, reference compound] was tested, and the Kd [7] was 43.4 ± 3 µM and the Kd [1] was 90 µM.
In the case of `CC(=O)N[C@H]1[C@H](O[C@H]2[C@H](O)[C@@H](NC(C)=O)[C@H](O[C@H]3[C@H](O)[C@@H](NC(C)=O)C(O)O[C@@H]3CO)O[C@@H]2CO)O[C@H](CO)[C@@H](O[C@@H]2O[C@H](CO)[C@@H](O[C@@H]3O[C@H](CO)[C@@H](O)[C@H](O)[C@H]3NC(C)=O)[C@H](O)[C@H]2NC(C)=O)[C@@H]1O` (stereo partly drawn) [GlcNAc5, chitopentaose (penta-N-acetylchitopentaose, beta-1,4-linked GlcNAc pentamer)], the Kd [2] is reported as 2.2 ± 0.3 µM, the Kd [3] is reported as 4.6 ± 0.4 µM and the Kd ([4]; SD) is reported as 9.6 ± 0.8 µM. For the same molecule, the Kd ([5]; SD) was 12.1 ± 1.4 µM and the Kd [8] was 11.7 ± 1.7 µM.
Work on `CC(=O)N[C@H]1[C@H](O[C@H]2[C@H](O)[C@@H](NC(C)=O)[C@H](O[C@H]3[C@H](O)[C@@H](NC(C)=O)C(O)O[C@@H]3CO)O[C@@H]2CO)O[C@H](CO)[C@@H](O[C@@H]2O[C@H](CO)[C@@H](O[C@@H]3O[C@H](CO)[C@@H](O[C@@H]4O[C@H](CO)[C@@H](O)[C@H](O)[C@H]4NC(C)=O)[C@H](O)[C@H]3NC(C)=O)[C@H](O)[C@H]2NC(C)=O)[C@@H]1O` (stereo partly drawn) [GlcNAc6, chitohexaose (hexa-N-acetylchitohexaose, beta-1,4-linked GlcNAc hexamer)] yielded a Kd [2] of 1.5 ± 0.1 µM, a Kd [3] of 3 ± 0.1 µM and a Kd ([4]; SD) of 5 ± 0.3 µM. It also gave a Kd ([5]; SD) of 5.6 ± 0.5 µM.
`CC(=O)N[C@H]1[C@H](O[C@H]2[C@H](O)[C@@H](NC(C)=O)[C@H](O[C@H]3[C@H](O)[C@@H](NC(C)=O)C(O)O[C@@H]3CO)O[C@@H]2CO)O[C@H](CO)[C@@H](O[C@@H]2O[C@H](CO)[C@@H](O[C@@H]3O[C@H](CO)[C@@H](O[C@@H]4O[C@H](CO)[C@@H](O)[C@H](O)[C@H]4NC(C)=O)[C@H](O)[C@H]3NC(C)=O)[C@H](O)[C@H]2NC(C)=O)[C@@H]1O` (stereo partly drawn) [GlcNAc6] showed a Kd [7] of 6 ± 0.8 µM.
